Test results as given in PubChem BioAssay (NCI).
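GI50 marks 50% less growth. The concentration for full growth arrest is given as TGI.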

Columns and labels:
Assay in all cases: NCI tumour cell line growth inhibition, 384-well format
HCC-2998 colon = system: HCC-2998 colon
HOP-92 NSCLC = system: HOP-92 NSCLC
UACC-257 melanoma = system: UACC-257 melanoma
RPMI-8226 leukemia = system: RPMI-8226 leukemia
KM12 colon = system: KM12 colon
MDA-MB-435 melanoma = system: MDA-MB-435 melanoma
LOX IMVI melanoma = system: LOX IMVI melanoma
SF-295 CNS = system: SF-295 CNS
CCRF-CEM leukemia = system: CCRF-CEM leukemia
SF-268 CNS = system: SF-268 CNS
HOP-62 NSCLC = system: HOP-62 NSCLC
T-47D breast = system: T-47D breast
SK-MEL-28 melanoma = system: SK-MEL-28 melanoma
NCI-H322M lung = system: NCI-H322M lung
SF-539 CNS = system: SF-539 CNS
SNB-19 CNS = system: SNB-19 CNS
UACC-62 melanoma = system: UACC-62 melanoma
IGROV1 ovarian = system: IGROV1 ovarian
OVCAR-5 ovarian = system: OVCAR-5 ovarian
U251 glioblastoma = system: U251 glioblastoma
HL-60(TB) leukemia = system: HL-60(TB) leukemia
ACHN renal = system: ACHN renal
TK-10 renal = system: TK-10 renal
COLO 205 colon = system: COLO 205 colon
HCT-116 colon = system: HCT-116 colon
A549 NSCLC = system: A549 NSCLC
NCI-H226 lung = system: NCI-H226 lung
CAKI-1 renal = system: CAKI-1 renal
PC-3 prostate = system: PC-3 prostate
OVCAR-3 ovarian = system: OVCAR-3 ovarian
HT29 colon = system: HT29 colon
K-562 leukemia = system: K-562 leukemia
MOLT-4 leukemia = system: MOLT-4 leukemia
NCI/ADR-RES ovarian = system: NCI/ADR-RES ovarian
M14 melanoma = system: M14 melanoma
OVCAR-8 ovarian = system: OVCAR-8 ovarian
HCT-15 colon = system: HCT-15 colon
RXF 393 renal = system: RXF 393 renal
786-0 renal = system: 786-0 renal
A498 renal = system: A498 renal
SW-620 colon = system: SW-620 colon
SN12C renal = system: SN12C renal
SK-MEL-5 melanoma = system: SK-MEL-5 melanoma
DU-145 prostate = system: DU-145 prostate
UO-31 renal = system: UO-31 renal
BT-549 breast = system: BT-549 breast
NCI-H460 NSCLC = system: NCI-H460 NSCLC

Compound CN(CCO)CC[C@H](CSc1ccccc1)Nc1ccc(S(=O)(=O)NC(=O)c2ccc(N3CCC([C@@H](O)c4ccccc4-c4ccc(Cl)cc4)CC3)cc2)cc1S(=O)(=O)C(F)(F)F has a GI50 (HCC-2998 colon) of under 0.01 µM, a TGI (HCC-2998 colon) of 0.199 µM and a GI50 (HOP-92 NSCLC) of under 0.01 µM. The TGI (HOP-92 NSCLC) was 0.301 µM, the GI50 (UACC-257 melanoma) was 2.29 µM and the TGI (UACC-257 melanoma) was 13.6 µM. The GI50 (RPMI-8226 leukemia) was under 0.01 µM, the TGI (RPMI-8226 leukemia) was under 0.01 µM and the GI50 (KM12 colon) was 2.69 µM. For the same compound, the TGI (KM12 colon) was 6.67 µM, the GI50 (MDA-MB-435 melanoma) was 3.42 µM and the TGI (MDA-MB-435 melanoma) was 9.42 µM. It also gave a GI50 (LOX IMVI melanoma) of 1.96 µM, a TGI (LOX IMVI melanoma) of 3.62 µM and a GI50 (SF-295 CNS) of 2.16 µM. For the same compound, the TGI (SF-295 CNS) was 5.23 µM, the GI50 (CCRF-CEM leukemia) was under 0.01 µM and the TGI (CCRF-CEM leukemia) was 0.0137 µM. For the same compound, the GI50 (SF-268 CNS) was 4.16 µM, the TGI (SF-268 CNS) was 13.9 µM and the GI50 (HOP-62 NSCLC) was 5.33 µM. It also gave a TGI (HOP-62 NSCLC) of 16.7 µM, a GI50 (T-47D breast) of 3.88 µM and a TGI (T-47D breast) of 14.6 µM. It also gave a GI50 (SK-MEL-28 melanoma) of 2.31 µM, a TGI (SK-MEL-28 melanoma) of 4.96 µM and a GI50 (NCI-H322M lung) of 2.72 µM. The TGI (NCI-H322M lung) was 9.6 µM, the GI50 (SF-539 CNS) was 4.11 µM and the TGI (SF-539 CNS) was 14.7 µM. For the same compound, the GI50 (SNB-19 CNS) was 4.85 µM, the TGI (SNB-19 CNS) was 17.2 µM and the GI50 (UACC-62 melanoma) was 2.32 µM. It also gave a TGI (UACC-62 melanoma) of 5.75 µM, a GI50 (IGROV1 ovarian) of 1.6 µM and a TGI (IGROV1 ovarian) of 3.25 µM. It also gave a GI50 (OVCAR-5 ovarian) of 5 µM, a TGI (OVCAR-5 ovarian) of 21.3 µM and a GI50 (U251 glioblastoma) of 2.62 µM. The TGI (U251 glioblastoma) was 6.48 µM, the GI50 (HL-60(TB) leukemia) was under 0.01 µM and the TGI (HL-60(TB) leukemia) was under 0.01 µM. The GI50 (ACHN renal) was 22.6 µM, the TGI (ACHN renal) was over 100 µM and the GI50 (TK-10 renal) was 3.78 µM. For the same compound, the TGI (TK-10 renal) was 15.9 µM, the GI50 (COLO 205 colon) was 0.807 µM and the TGI (COLO 205 colon) was 2.13 µM. For the same compound, the GI50 (HCT-116 colon) was 2.97 µM, the TGI (HCT-116 colon) was 9.36 µM and the GI50 (A549 NSCLC) was over 100 µM. For the same compound, the TGI (A549 NSCLC) was over 100 µM, the GI50 (NCI-H226 lung) was 1.76 µM and the TGI (NCI-H226 lung) was 6.04 µM. For the same compound, the GI50 (CAKI-1 renal) was 5.42 µM, the TGI (CAKI-1 renal) was 15.9 µM and the GI50 (PC-3 prostate) was 2.43 µM. For the same compound, the TGI (PC-3 prostate) was 5.71 µM, the GI50 (OVCAR-3 ovarian) was 3.54 µM and the TGI (OVCAR-3 ovarian) was 12.2 µM. The GI50 (HT29 colon) was 4.35 µM, the TGI (HT29 colon) was 15.5 µM and the GI50 (K-562 leukemia) was 3.04 µM. The TGI (K-562 leukemia) was 8.08 µM, the GI50 (MOLT-4 leukemia) was under 0.01 µM and the TGI (MOLT-4 leukemia) was under 0.01 µM. The GI50 (NCI/ADR-RES ovarian) was over 100 µM, the TGI (NCI/ADR-RES ovarian) was over 100 µM and the GI50 (M14 melanoma) was 2.82 µM. It also gave a TGI (M14 melanoma) of 7.47 µM, a GI50 (OVCAR-8 ovarian) of 11.9 µM and a TGI (OVCAR-8 ovarian) of 24.4 µM. The GI50 (HCT-15 colon) was 64.9 µM, the TGI (HCT-15 colon) was over 100 µM and the GI50 (RXF 393 renal) was under 0.01 µM. It also gave a TGI (RXF 393 renal) of 0.53 µM, a GI50 ([…]-0 renal) of 2.51 µM and a TGI (786-0 renal) of 6.68 µM. For the same compound, the GI50 (A498 renal) was 1.73 µM, the TGI (A498 renal) was 6.09 µM and the GI50 (SW-620 colon) was 4.48 µM. For the same compound, the TGI (SW-620 colon) was 16.2 µM, the GI50 (SN12C renal) was 4.04 µM and the TGI (SN12C renal) was 13.9 µM. It also gave a GI50 (SK-MEL-5 melanoma) of 1.81 µM, a TGI (SK-MEL-5 melanoma) of 6.32 µM and a GI50 (DU-145 prostate) of 18.6 µM. For the same compound, the TGI (DU-145 prostate) was 55.9 µM, the GI50 (UO-31 renal) was over 100 µM and the TGI (UO-31 renal) was over 100 µM. The GI50 (BT-549 breast) was 3.45 µM, the TGI (BT-549 breast) was 10.3 µM and the GI50 (NCI-H460 NSCLC) was 13.7 µM. The TGI (NCI-H460 NSCLC) was 27.9 µM.
